According to patent publication US20240391954A1, “MC4R AGONIST PEPTIDES” (The Regents of the University of Michigan, priority 2021, published 2024):
Where two headings read alike, the source gives them in different places. Positions of bridges follow the written chain, without caps; N, C: chain ends. Non-standard residues stand in square brackets, D forms with d. Residues, ends and D or L forms follow the SMILES beside them. dPhe(4-Br) = N[C@H](Cc1ccc(Br)cc1)C(=O)O; dPhe(4-F) = N[C@H](Cc1ccc(F)cc1)C(=O)O; Nle = CCCC[C@H](N)C(=O)O; dAbu = CC[C@@H](N)C(=O)O; Aib = CC(C)(N)C(=O)O

Assays:
[1] = target: T1, human MC3R (Homo sapiens, UniProt P41968); assay: split-luciferase cAMP sensor assay, agonist mode (measurement window 1), hMC3R; type: cell-based; conditions: for Emax: read-out: MC3R cAMP % max activation; for MC4R selectivity vs MC3R: MC4R versus MC3R
T1 construct: expressed in transfected cells; host or cells: HEK-293 cells stably expressing the GScAMP22F split-luciferase cAMP sensor (parent reporter line from Promega); MC3R clone generated in-house, G418 selection
Method in brief: (§1)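 Live stable cell lines carrying receptor plus GloSensor cAMP22f split-luciferase, loaded with 4% D-luciferin in serum-free medium (~1% serum estimated during assay). Luminescence recorded during in-line peptide addition; direct agonist effect read in window 1, with 20 μM forskolin as normalization reference. EC50 from four-parameter sigmoid fit.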

[2] = Plasma protein binding (Centrifree ultrafiltration); type: in vitro ADME
Description: Solutions of test compound in DMSO were prepared at 1 mM, 100 uM and 10 uM, 5 ul of each solution of test compound was added to 495 uL plasma, and incubated at 25° C. for 5 min. Sample was added to a Centrifree® device, then centrifuged at 2000× g for 20 min to obtain desired filtrate volume. Initial plasma samples and ultrafiltrates were subjected to LC-MS/MS. % Free peptide=(concentration of ultrafiltrates/concentration of plasma)×100%. % Bound=100%−% Free

[3] = target: T2, human MC1R (Homo sapiens, UniProt Q01726); assay: split-luciferase cAMP sensor assay, agonist mode, hMC1R; type: cell-based; conditions: MC4R versus MC1R
T2 construct: expressed in transfected cells; host or cells: HEK-293 cells stably expressing hMC1R and the GScAMP22F cAMP sensor
Method in brief: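 HEK-293 cells stably expressing hMC1R and the GScAMP22F split-luciferase cAMP sensor, preloaded 120 min at 37° C with D-luciferin in serum-free medium. Peptide responses were taken as peak luminescence over 2-13 min minus 2-min baseline, normalized to the α-MSH ECmax. EC50 was obtained from a four-parameter variable-slope fit.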

[4] = Mouse plasma stability; type: in vitro ADME; conditions: 37° C.; for half-life at 1 µM: pooled mouse plasma
Description: FIG. 3. Results of plasma stability testing for control peptides. Compounds shown were incubated in mouse plasma at 37° C. at 1 μM concentrations. 40 ul aliquots were removed at the times indicated and the reactions stopped with the addition of 160 μL cold acetonitrile containing 200 ng/ml of peptide internal standard (IS). The incubation solution was centrifuged at 3500 rpm for 10 minutes to precipitate protein. LC/MS/MS analysis was used to determine the % peptide remaining.
Pooled mouse plasma was prepared and stored at −80° C, prior to use, 396 μL mouse plasma was incubated at 37° C. for 5 minutes in 1.5 mL microcentrifuge tubes. 4 μL of 100 μM test or control compound/peptide was added to each tube and incubated for 0.5, 15, 30, 60, 120, or 240 minutes. An aliquot of 40 μL of each reaction was stopped by the addition of 4 volume of cold acetonitrile containing 200 ng/mL of […] solution was centrifuged at 3500 rpm for 10 minutes to precipitate protein. The supernatant was used for LC/MS/MS analysis. The natural log peak area ratio (compound peak area/internal standard peak area) was plotted against time and the gradient of the line determined.

[5] = target: T3, human MC4R (Homo sapiens, UniProt P32245); assay: split-luciferase cAMP sensor assay, agonist mode (measurement window 1), hMC4R; type: cell-based; conditions: for Emax / EC50: agonist mode; for Emax: read-out: MC4R cAMP % max activation; for EC50: read-out: MC4R cAMP EC50
T3 construct: host or cells: HEK-293 cells stably expressing the GScAMP22F split-luciferase cAMP sensor and hMC4R, G418 selection
Method in brief: as §1

[6] = % maximal activation, agonist mode
[7] = 1.0 uM, read-out: Protein Binding 1.0 uM (converted)
[8] = 10.0 uM, read-out: Protein Binding 10.0 uM (converted)
[9] = agonist mode, hMC3R stable cell line

T1 sequence (P41968 whole entry): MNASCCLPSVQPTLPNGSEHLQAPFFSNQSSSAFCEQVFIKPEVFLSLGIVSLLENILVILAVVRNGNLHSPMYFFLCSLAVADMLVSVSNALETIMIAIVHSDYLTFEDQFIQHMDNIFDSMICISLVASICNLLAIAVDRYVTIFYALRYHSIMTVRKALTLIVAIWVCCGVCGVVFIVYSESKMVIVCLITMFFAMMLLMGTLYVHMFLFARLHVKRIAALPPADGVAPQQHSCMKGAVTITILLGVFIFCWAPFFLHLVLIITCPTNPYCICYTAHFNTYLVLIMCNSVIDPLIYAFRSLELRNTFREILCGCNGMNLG
T3 sequence (P32245 whole entry): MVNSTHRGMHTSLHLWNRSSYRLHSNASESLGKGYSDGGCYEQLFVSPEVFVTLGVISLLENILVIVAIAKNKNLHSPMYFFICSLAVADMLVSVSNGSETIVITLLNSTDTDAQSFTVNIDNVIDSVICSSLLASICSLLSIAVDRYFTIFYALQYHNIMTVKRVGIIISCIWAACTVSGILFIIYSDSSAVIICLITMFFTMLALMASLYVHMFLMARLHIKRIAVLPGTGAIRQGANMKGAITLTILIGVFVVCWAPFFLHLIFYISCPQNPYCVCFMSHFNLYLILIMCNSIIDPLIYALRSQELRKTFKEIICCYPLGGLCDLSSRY
T2 sequence (Q01726 whole entry): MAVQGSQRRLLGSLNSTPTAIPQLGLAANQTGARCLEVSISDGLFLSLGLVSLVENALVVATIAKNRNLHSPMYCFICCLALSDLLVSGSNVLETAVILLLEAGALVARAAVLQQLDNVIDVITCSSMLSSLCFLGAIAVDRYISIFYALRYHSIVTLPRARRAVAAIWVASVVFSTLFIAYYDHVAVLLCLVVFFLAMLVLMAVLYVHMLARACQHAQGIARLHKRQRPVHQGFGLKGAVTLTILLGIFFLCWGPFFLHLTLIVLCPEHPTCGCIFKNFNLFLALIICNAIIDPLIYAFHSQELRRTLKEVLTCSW

Row | SMILES | Emax [1, 6] | MC4R selectivity vs MC3R [1] | fraction unbound at 5 min, 0.1 µM [2] | fraction unbound at 5 min, 1 µM ([2]; 1.0 uM) | fraction unbound at 5 min, 10 µM ([2]; 10.0 uM) | MC4R selectivity vs MC1R [3] | half-life at 1 µM [4] | Emax ([5]; % maximal activation) | EC50 ([5]; HEK-293 cells stably expressing hMC4R) | fraction unbound at 0.1 uM [2] | fraction unbound [2, 7] | fraction unbound [2, 8] | half-life [4] | Emax [1, 9] | MC4R selectivity vs MC1R [5] | MC4R selectivity vs MC3R [5] | Emax ([5]; hMC4R stable cell line) | EC50 ([5]; hMC4R stable cell line) | EC50 ([1]; HEK-293 cells stably expressing hMC3R, agonist mode, read-out: MC3R cAMP EC50)
1 | CC(=O)N[C@@H](CCCNC(=N)N)C(=O)N[C@H]1CSSC[C@@H](C(N)=O)NC(=O)[C@H](Cc2c[nH]c3ccccc23)NC(=O)[C@H](CCCNC(=N)N)NC(=O)[C@@H](Cc2ccccc2)NC(=O)[C@H](CCCNC(N)=O)NC(=O)[C@@H](C)NC1=O [CTX-1285, Arg-cyclo(Cys-D-Ala-Cit-D-Phe-Arg-Trp-Cys)] | 28% | 2.9 | 0.55 | 0.61 | 0.59 | 134 | > 4 h | 94% | 1.7 nM | – | – | – | – | – | – | – | – | – | –
2 | CC(=O)N[C@@H](CCCNC(=N)N)C(=O)N[C@H]1CSSC[C@@H](C(N)=O)NC(=O)[C@@H](Cc2c[nH]c3ccccc23)NC(=O)[C@H](CCCNC(=N)N)NC(=O)[C@@H](Cc2ccccc2)NC(=O)[C@H](CCCNC(=N)N)NC(=O)[C@H](C)NC1=O [CTX-1268, Arg-cyclo(Cys-Ala-Arg-D-Phe-Arg-D-Trp-Cys)] (Ac-RCAR[dF]R[dW]C-NH2; disulfide 2-8) | 44% | 30 | – | – | – | 6.59 | – | 96% | – | 0.48 | 0.42 | 0.38 | 1.75 h | – | – | – | – | – | –
3 | CC(=O)N[C@@H](CCCNC(=N)N)C(=O)N[C@H]1CSSC[C@@H](C(N)=O)NC(=O)[C@H](Cc2c[nH]c3ccccc23)NC(=O)[C@H](CCCNC(=N)N)NC(=O)[C@@H](Cc2ccccc2)NC(=O)[C@H](CCCNC(=N)N)NC(=O)[C@@H](C)NC1=O [CTX-1211, Arg-cyclo(Cys-D-Ala-Arg-D-Phe-Arg-Trp-Cys)] (Ac-RC[dA]R[dF]RWC-NH2; disulfide 2-8 (inferred)) | 91% | 5.49 | 0.49 | 0.37 | 0.39 | 3.12 | > 3 h | 96% | – | – | – | – | – | – | – | – | – | – | –
4 | CC[C@H]1NC(=O)[C@@H](NC(=O)[C@H](CCCNC(=N)N)NC(C)=O)CSSC[C@@H](C(N)=O)NC(=O)[C@@H](Cc2c[nH]c3ccccc23)NC(=O)[C@H](CCCNC(=N)N)NC(=O)[C@@H](Cc2ccc(Br)cc2)NC(=O)[C@H](CCCNC(=N)N)NC1=O [CTX-1247, Arg-cyclo(Cys-D-Abu-Arg-D-Phe(4-Br)-Arg-D-Trp-Cys)] (Ac-RC[dAbu]R[dPhe(4-Br)]R[dW]C-NH2; disulfide 2-8 (inferred)) | – | – | 0.51 | 0.47 | 0.47 | – | 3.32 h | – | – | – | – | – | – | 13% | 0.43 | 2.05 | 75% | 3.3 nM | –
5 | COc1ccc(C[C@H]2NC(=O)[C@H](CCCNC(=N)N)NC(=O)[C@@H](C)NC(=O)[C@@H](NC(=O)[C@H](CCCNC(=N)N)NC(C)=O)CSSC[C@@H](C(N)=O)NC(=O)[C@@H](Cc3c[nH]c4ccccc34)NC(=O)[C@H](CCCNC(=N)N)NC2=O)cc1 [CTX-1238, Arg-cyclo(Cys-D-Ala-Arg-D-Tyr(O-Me)-Arg-D-Trp-Cys)] (Ac-RC[dA]R[dY](Me)R[dW]C-NH2; disulfide 2-8 (inferred)) | – | – | 0.47 | 0.53 | 0.59 | – | 2.87 h | – | – | – | – | – | – | 21% | 0.44 | 0.49 | 79% | – | –
6 | CC(=O)N[C@@H](CCCNC(=N)N)C(=O)N[C@H]1CSSC[C@@H](C(N)=O)NC(=O)[C@@H](Cc2c[nH]c3ccccc23)NC(=O)[C@H](CCCNC(=N)N)NC(=O)[C@@H](Cc2ccc(Br)cc2)NC(=O)[C@H](CCCNC(=N)N)NC(=O)C(C)(C)NC1=O [CTX-1246, Arg-cyclo(Cys-Aib-Arg-D-Phe(4-Br)-Arg-D-Trp-Cys)] (Ac-RC[Aib]R[dPhe(4-Br)]R[dW]C-NH2; disulfide 2-8 (inferred)) | – | – | 0.27 | 0.56 | 0.57 | – | > 4 h | – | – | – | – | – | – | 21% | – | – | – | – | –
7 | CC(=O)N[C@@H](CCCNC(=N)N)C(=O)N[C@H]1CSSC[C@@H](C(N)=O)NC(=O)[C@@H](Cc2c[nH]c3ccccc23)NC(=O)[C@H](CCCNC(=N)N)NC(=O)[C@@H](Cc2ccc(F)cc2)NC(=O)[C@H](CCCNC(=N)N)NC(=O)[C@@H](C)NC1=O [CTX-1236, Arg-cyclo(Cys-D-Ala-Arg-D-Phe(4-F)-Arg-D-Trp-Cys)] (Ac-RC[dA]R[dPhe(4-F)]R[dW]C-NH2; disulfide 2-8) | – | – | – | – | – | – | – | – | – | 0.55 | 0.51 | 0.49 | 3.78 h | 66% | 2.01 | 1.36 | 97% | 1.9 nM | –
8 | CCCC[C@H](NC(=O)[C@H](CCCNC(=N)N)NC(C)=O)C(=O)N[C@H]1CSSC[C@@H](C(N)=O)NC(=O)[C@H](Cc2c[nH]c3ccccc23)NC(=O)[C@H](CCCNC(=N)N)NC(=O)[C@@H](Cc2ccccc2)NC(=O)[C@H](CCCNC(=N)N)NC1=O [CTX-1228, Arg-Nle-cyclo(Cys-Arg-D-Phe-Arg-Trp-Cys)] (Ac-R[Nle]CR[dF]RWC-NH2; disulfide 3-8 (inferred)) | 93% | 8.38 | 0.63 | 0.61 | 0.61 | 3.16 | 0.917 h | 102% | – | – | – | – | – | – | – | – | – | – | 1.6 nM
9 | CC(=O)N[C@@H](CCCNC(=N)N)C(=O)N[C@H]1CSSC[C@@H](C(N)=O)NC(=O)[C@H](Cc2ccccc2)NC(=O)[C@H](CCCNC(=N)N)NC(=O)[C@@H](Cc2ccc(Br)cc2)NC(=O)[C@H](CCCNC(=N)N)NC(=O)[C@@H](C)NC1=O [CTX-1258, Arg-cyclo(Cys-D-Ala-Arg-D-Phe(4-Br)-Arg-Phe-Cys)] (Ac-RC[dA]R[dPhe(4-Br)]RFC-NH2; disulfide 2-8) | – | – | 0.53 | 0.5 | 0.5 | – | > 4 h | – | – | – | – | – | – | 36% | 0.53 | 3.04 | 92% | 2.4 nM | –
